The values below come from ChEMBL document CHEMBL1201862, “PubChem BioAssay data set” (2004).

What all share (experiment): NCI-60 cell line screen, 48 h
For assay [1], the system named is HCT-15.
For assay [2], the system named is HOP-92.
Assay [3] deals with OVCAR-8.
Assay [4] relates to SK-MEL-5.
For assay [5], the system named is HCC 2998.
For assay [6], the system named is Malme-3M.
The subject of assay [7] is OVCAR-4.
Assay [8] relates to HOP-62.
Assay [9] relates to PC-3.
For assay [10], the system named is LOX IMVI.
In assay [11] the test system is OVCAR-3.
For assay [12], the system named is UACC-62.
Assay [13] relates to SK-MEL-28.
For assay [14], the system named is NCI-H226.
The test system of assay [15] is BT-549.
In assay [16] the test system is OVCAR-5.
Assay [17] deals with U-251.
Assay [18] has as its system SNB-75.
Assay [19] has as its system RPMI-8226.

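Five concentrations, 48 hours, 96-well plates. GI50 marks 50% less growth.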 The source made the active and inactive calls. Rule as the data show it: active = GI50 up to about 1.1 µM and inactive = higher.

Turning to `Nc1nc(Cc2ccccc2)nc(Cc2ccccc2)c1-c1ccccc1`, the GI50 in assay [1] was 21.5 µM; in assay [2] it was 11.5 µM (inactive); in assay [3], 28.7 µM (inactive); in [4], 15.5 µM (inactive); in assay [5] it was 46.6 µM (inactive); in assay [6] it was 20.4 µM (inactive). Also, the GI50 was 38.5 µM (inactive) in [7]; 20.7 µM (inactive) in assay [8]; 23.1 µM (inactive) in assay [9]; 21.3 µM (inactive) in assay [10]; 14.7 µM (inactive) in assay [11]; 18 µM (inactive) in [12]. Moreover, the GI50 in [13] was 48.1 µM (inactive); in [14], 19.2 µM (inactive); in assay [15], 20.6 µM (inactive); in assay [16], 29.1 µM (inactive); in assay [17] it was 17.9 µM (inactive).
Take `C#CCn1c(=O)c(Cl)cn(/C(=C/C(=O)OCC)C(=O)OCC)c1=O`: the GI50 in assay [1] is 6.79 µM; in [2] it was 9.77 µM (inactive); in assay [3], 5.48 µM (inactive); in assay [4], 16.9 µM (inactive); in assay [6], 3.86 µM (inactive); in [7] it was 17.2 µM (inactive). The GI50 in assay [8] was 20 µM (inactive); in [18], 14.7 µM (inactive); in [19], 1.91 µM (inactive); in assay [9] it was 16.6 µM (inactive); in assay [10], 8.32 µM (inactive); in [11], 3.48 µM (inactive). The GI50 is 15.8 µM (inactive) in assay [12]; 19 µM (inactive) in [13]; > 43.1 µM (inactive) in assay [14]; 18.5 µM (inactive) in [15]; 16.9 µM (inactive) in assay [16]; 17.7 µM (inactive) in assay [17].
Take `O=C(O)C1(Nc2ccc(Cl)cc2)CCCC1`: the GI50 in assay [1] was 11.5 µM; in assay [2] it was > 100 µM (inactive); in assay [3] it was > 100 µM (inactive); in [4] it was > 100 µM (inactive); in assay [6], > 100 µM (inactive); in assay [7] it was > 100 µM (inactive). Further, the GI50 in assay [8], in assay [18], in assay [19], in [9], in [10] and in [11] was > 100 µM (inactive) throughout. The GI50 in assay [12], in [13], in assay [14], in assay [15], in assay [16] and in [17] was > 100 µM (inactive) each time.
Turning to `Cc1ccc2nc3sc(=O)sc3nc2c1` [CHINOMETHIONAT], the GI50 in [1] was 15.3 µM; in [2], 15.5 µM (inactive); in assay [3], 15.3 µM (inactive); in assay [4], 15.6 µM (inactive); in assay [5], 16.2 µM (inactive); in assay [7], 13.7 µM (inactive). Besides, the GI50 in assay [8] is 16.6 µM (inactive); in assay [18], 19.6 µM (inactive); in assay [19], 19.5 µM (inactive); in assay [9], 14.3 µM (inactive); in assay [10], 15 µM (inactive); in assay [11], 14.5 µM (inactive). The GI50 in assay [12] is 17.9 µM (inactive); in assay [13], 17.9 µM (inactive); in assay [14] it was 14.3 µM (inactive); in assay [15] it was 15.3 µM (inactive); in [16], 16.7 µM (inactive); in [17] it was 17.1 µM (inactive).
Turning to `Cc1ccc(N2C(=O)C3c4[nH]c5ccc(C)cc5c4C4CCC(C(C)(C)C)CC4C3C2=O)cc1` (stereo unspecified), the GI50 is 49.8 µM in [1]; 16.1 µM (inactive) in [2]; 9.62 µM (inactive) in [3]; 32.1 µM (inactive) in [4]; 14 µM (inactive) in assay [6]; 6.27 µM (inactive) in assay [7]. Also, the GI50 in assay [8] is 10.8 µM (inactive); in assay [19], 12.9 µM (inactive); in assay [9], 16.6 µM (inactive); in assay [10] it was 15 µM (inactive); in [11], 12.1 µM (inactive); in assay [12], 16.2 µM (inactive). The GI50 was 22.4 µM (inactive) in [13]; 21.6 µM (inactive) in assay [14]; 26.9 µM (inactive) in [15]; 11.3 µM (inactive) in assay [16]; 10.9 µM (inactive) in assay [17].
Regarding `O=C(O)[C@H]1CCCN1CP(=O)(O)CN1CCC[C@@H]1C(=O)O`, the GI50 is > 100 µM in assay [1]; > 100 µM (inactive) in assay [2]; > 100 µM (inactive) in assay [3]; > 100 µM (inactive) in assay [4]; > 100 µM (inactive) in [6]; > 100 µM (inactive) in assay [7]. The GI50 in [8], in [18], in assay [9], in assay [10], in [11] and in [12] was > 100 µM (inactive) each time. In addition, the GI50 in assay [13], in [15], in assay [16] and in assay [17] was > 100 µM (inactive) in each case.
For the molecule `CCOC(=O)CNC(=O)C(CSCC1C(=O)Nc2ccccc21)NC(=O)CCC(N)C(=O)OCC` (stereo unspecified), the GI50 in assay [1] is 1.04 µM; in assay [2] it was 1.25 µM (inactive); in [3], 2.81 µM (inactive); in [4], 1.6 µM (inactive); in assay [6], 1.88 µM (inactive); in [7] it was 2.78 µM (inactive). Further, the GI50 was 2.1 µM (inactive) in assay [8]; 1.27 µM (inactive) in assay [19]; 1.88 µM (inactive) in [9]; 0.46 µM (active) in [10]; 2.01 µM (inactive) in [11]; 1.57 µM (inactive) in [12]. The GI50 in assay [13] was 1.68 µM (inactive); in [14] it was 1.93 µM (inactive); in [15], 2.44 µM (inactive); in [16] it was 1.84 µM (inactive); in [17], 1.31 µM (inactive).
In the case of `COc1ccc(NC(=O)CC(=O)NN)cc1`, the GI50 in assay [1] was > 100 µM; in assay [2], 64 µM (inactive); in [3] it was > 100 µM (inactive); in assay [4], > 100 µM (inactive); in assay [6], > 100 µM (inactive); in [7], > 100 µM (inactive). Also, the GI50 in assay [8], in [18], in [19], in assay [9], in [10] and in assay [11] was > 100 µM (inactive) each time. Moreover, the GI50 in assay [12], in assay [14], in assay [15], in assay [16] and in [17] was > 100 µM (inactive) in each case.
For `O=C(O)c1ccc(/N=C(\C(=N\c2ccc(C(=O)O)cc2)c2ccccc2)c2ccccc2)cc1`, the GI50 was > 100 µM in assay [1]; > 100 µM (inactive) in [3]; > 100 µM (inactive) in assay [5]; > 100 µM (inactive) in assay [7]; > 100 µM (inactive) in [8]; > 100 µM (inactive) in assay [18]. The GI50 in assay [19], in assay [9], in assay [10], in assay [11], in [12] and in [13] was > 100 µM (inactive) in each case. For the same molecule, the GI50 was > 100 µM (inactive) in assay [14], 33.5 µM (inactive) in assay [15], > 100 µM (inactive) in assay [16] and > 100 µM (inactive) in assay [17].
Take `O=C(O)c1nc2cc(C(F)(F)F)ccc2nc1Nc1ccc(Cl)c(Cl)c1`: the GI50 in [1] is 12.3 µM; in [2] it was 11 µM (inactive); in assay [3] it was 12.6 µM (inactive); in assay [4], 17.7 µM (inactive); in assay [6] it was 20.1 µM (inactive); in [7], 21.2 µM (inactive). The GI50 in assay [8] is 14.5 µM (inactive); in assay [18], 20.5 µM (inactive); in assay [19], 6.78 µM (inactive); in assay [9], 4.3 µM (inactive); in [10], 17.3 µM (inactive); in [11], 13.5 µM (inactive). Also, the GI50 in assay [12] is 12.3 µM (inactive); in assay [14], 15.8 µM (inactive); in assay [15], 11.1 µM (inactive); in assay [16] it was 17.7 µM (inactive); in [17], 10.3 µM (inactive).
Take `CC[C@]12C=CCN3CC[C@@]4(c5cc(N=O)c(OC)cc5N(C)[C@H]4[C@@](O)(C(=O)OC)[C@@H]1OC(C)=O)[C@@H]32`: the GI50 in assay [1] is 86.3 µM; in [2], > 100 µM (inactive); in assay [3], > 100 µM (inactive); in [4], 37.9 µM (inactive); in assay [5] it was > 100 µM (inactive); in assay [6] it was 71.3 µM (inactive). The GI50 in [7] was > 100 µM (inactive); in assay [8], 61 µM (inactive); in assay [18], 57.7 µM (inactive); in [9], 40.8 µM (inactive); in [10] it was 34.1 µM (inactive); in assay [11], 48 µM (inactive). Moreover, the GI50 is 51.4 µM (inactive) in assay [12]; > 100 µM (inactive) in assay [13]; > 100 µM (inactive) in assay [14]; > 100 µM (inactive) in assay [15]; > 100 µM (inactive) in assay [16]; 16.7 µM (inactive) in assay [17].
As to `FC(F)(F)c1cc(Cl)cnc1N/N=C(/c1ccccc1)c1ccccn1`, the GI50 in [1] was 0.74 µM; in assay [2], 1.81 µM (inactive); in assay [3], 1.8 µM (inactive); in assay [4], 3.15 µM (inactive); in [5], 8 µM (inactive); in [7], 6.67 µM (inactive). The GI50 was 3.98 µM (inactive) in assay [8]; 0.298 µM (active) in assay [18]; 4.11 µM (inactive) in assay [19]; 3.54 µM (inactive) in [9]; 1.82 µM (inactive) in assay [11]; 3.27 µM (inactive) in assay [12]. In addition, the GI50 is 6.92 µM (inactive) in assay [13]; 1.57 µM (inactive) in assay [14]; 6.93 µM (inactive) in assay [15]; 2 µM (inactive) in assay [16]; 3.62 µM (inactive) in assay [17].
